Assay results: patent US8017401B2, “Method for determining redox activity and screening compounds based on redox activity” (State of Oregon acting by and through the State Board of …, priority 2005, dated 2011)
Read-outs that look alike come from different tables or passages of the source.

Columns and labels:
[1] = biological target: xanthine-xanthine oxidase reaction (Homo sapiens, UniProt P47989); assay: Superoxide measurement in the xanthine-xanthine oxidase reaction; format: biochemical
[2] = Reaction of NBD-Cl with KO2: stopped-flow kinetics, absorbance and fluorescence calibration; format: physicochemical
[3] = Redox activity by reaction with photo-excited dye under aerobic conditions (probe reduction at 470 nm and dye photo-bleaching); format: physicochemical; details: for redox activity (electron donor or electron acceptor): conclusion from the photo-excited dye assay of the respective example
[4] = Redox activity of activators and inhibitors of membrane-bound transport proteins (overview statement); format: physicochemical; details: activators and inhibitors of the sarcoplasmic reticulum calcium release channel; no reference given
[5] = modulators of L-type calcium channel, sodium channel, mitochondrial ATP-dependent potassium channel; references 1-3; cited from earlier work
[6] = tested on: sarcoplasmic reticulum Ca^2+ release channel; details: cited from earlier work
[7] = 10 μM erythrosin, 50 μM NBD-Cl, 80% dimethyl sulfoxide / 20% 1 mM Tris-HCl, pH 7.4, compound 200 μM (diethyl benzocaine 2 mM) vs control
[8] = 10 μM methylene blue, 100 μM NADH, 50 μM NBD-Cl, 10 mM Tris-HCl in water, pH 7.4, doxorubicin 25 and 50 μM vs zero

Chain of xanthine-xanthine oxidase reaction (P47989 whole entry): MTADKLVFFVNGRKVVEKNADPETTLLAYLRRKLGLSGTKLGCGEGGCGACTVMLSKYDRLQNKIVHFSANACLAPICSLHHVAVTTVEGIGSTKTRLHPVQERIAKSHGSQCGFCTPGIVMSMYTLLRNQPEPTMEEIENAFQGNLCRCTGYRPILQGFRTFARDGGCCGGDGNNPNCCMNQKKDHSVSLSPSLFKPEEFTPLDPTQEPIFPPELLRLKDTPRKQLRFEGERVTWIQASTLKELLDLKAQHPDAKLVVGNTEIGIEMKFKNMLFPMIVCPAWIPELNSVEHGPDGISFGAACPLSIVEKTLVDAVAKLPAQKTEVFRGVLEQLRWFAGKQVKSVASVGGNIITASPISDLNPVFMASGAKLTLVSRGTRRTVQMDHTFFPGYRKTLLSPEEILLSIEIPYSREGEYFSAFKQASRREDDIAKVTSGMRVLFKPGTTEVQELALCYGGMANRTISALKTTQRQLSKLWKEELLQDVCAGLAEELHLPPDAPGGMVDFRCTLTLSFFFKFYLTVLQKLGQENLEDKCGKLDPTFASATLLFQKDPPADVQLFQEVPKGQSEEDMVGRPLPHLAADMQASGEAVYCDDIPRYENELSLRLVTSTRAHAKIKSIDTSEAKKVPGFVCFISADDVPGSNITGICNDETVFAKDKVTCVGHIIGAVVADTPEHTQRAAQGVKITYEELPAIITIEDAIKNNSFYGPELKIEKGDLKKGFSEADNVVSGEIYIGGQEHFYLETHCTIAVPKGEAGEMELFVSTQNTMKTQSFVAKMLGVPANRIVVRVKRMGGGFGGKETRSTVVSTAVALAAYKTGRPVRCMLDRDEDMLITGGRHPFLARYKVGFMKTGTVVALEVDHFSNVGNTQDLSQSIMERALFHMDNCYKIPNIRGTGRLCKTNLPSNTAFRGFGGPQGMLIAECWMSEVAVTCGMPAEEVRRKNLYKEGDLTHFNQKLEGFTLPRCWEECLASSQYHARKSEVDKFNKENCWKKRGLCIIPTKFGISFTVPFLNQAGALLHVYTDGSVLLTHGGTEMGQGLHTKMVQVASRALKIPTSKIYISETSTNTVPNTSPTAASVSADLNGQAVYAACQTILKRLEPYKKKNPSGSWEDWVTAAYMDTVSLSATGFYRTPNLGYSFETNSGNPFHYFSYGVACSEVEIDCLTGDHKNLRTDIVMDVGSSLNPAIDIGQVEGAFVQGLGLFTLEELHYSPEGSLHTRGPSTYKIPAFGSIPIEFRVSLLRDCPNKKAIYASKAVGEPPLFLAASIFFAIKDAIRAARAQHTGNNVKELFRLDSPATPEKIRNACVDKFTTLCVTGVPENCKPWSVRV

Row | Compound | redox activity (electron donor or electron acceptor) [3] | redox activity (electron donor or electron acceptor) [4] | also measured
1 | 2,3-bis(2-methoxy-4-nitro-5-sulphophenyl)-5-[(phenylamino)carbonyl]-2H-tetrazolium hydroxide [XTT] | – | – | effect of the probe on the xanthine-xanthine oxidase reaction rate [1]: about a two-fold increase; Superoxide at 470 nm (initial rate of superoxide formation) ([1]; pH 7.4): 0.225 ± 0.010; second-order rate constants for reduction by superoxide [2]: 8.59±0.81×10^4 M^−1s^−1
2 | COc1cc(-c2ccc(-n3nc(-c4ccccc4)n[n+]3-c3ccc([N+](=O)[O-])cc3)c(OC)c2)ccc1-n1nc(-c2ccccc2)n[n+]1-c1ccc([N+](=O)[O-])cc1 [NBT, nitroblue tetrazolium] | – | – | Superoxide at 550 nm (initial rate of superoxide formation) ([1]; pH 7.4): 0.038 ± 0.002
3 | CC[C@H]1[C@@H]2C[C@H]3[C@@H]4N(C)c5ccccc5[C@]45C[C@@H]([C@@H]2[C@H]5O)N3[C@@H]1O [ajmalin] | electron donors | – | rate of NBD-Cl reduction (increasing absorbance at 470 nm) [3, 7]: increased; relative degree of electron donor activity ([3]; 10 μM erythrosin, 50 μM NBD-Cl, 80% dimethyl sulfoxide, from level of increase of NBD-Cl reduction rate): stronger electron donor than diethyl benzocaine
4 | CC(C)COCC(CN(Cc1ccccc1)c1ccccc1)N1CCCC1 (stereo not shown) [bepridil] | electron donor | – | rate of XTT reduction (increasing absorbance at 470 nm) ([3]; 10 μM eosin, 50 μM XTT, 1 mM Tris-HCl in water, pH 7.4, bepridil 20 and 200 μM vs zero): increased
5 | Cn1c(=O)c2c(ncn2C)n(C)c1=O [caffeine] | – | electron acceptors | –
6 | CN(C)C(=O)/N=N/C(=O)N(C)C [diamide] | – | electron acceptors | –
7 | O=C1c2c(O)ccc(O)c2C(=O)c2c(NCCNCCO)ccc(NCCNCCO)c21 [mitoxantrone] | – | electron acceptors | –
8 | Oc1ccc(-c2[o+]c3cc(O)cc(O)c3cc2O)cc1 [pelargonidine] | – | – | redox activity (electron donor or electron acceptor) [5]: electron acceptor
9 | CCCCNc1ccc(C(=O)OCCN(C)C)cc1 [tetracaine] | electron donors | electron donors | rate of NBD-Cl reduction (increasing absorbance at 470 nm) [3, 7]: increased
10 | ryanodine | – | – | concentrations at which it is a specific activator of the calcium release channel [6]: 1 to 2 µM

The next lines start with results.

Row | redox activity (electron donor or electron acceptor) [3] | redox activity (electron donor or electron acceptor) [4] | Compound | also measured
11 | – | electron donors | N[C@@H](CS)C(=O)O [cysteine] | –
12 | – | electron acceptors | N[C@@H](CSSC[C@H](N)C(=O)O)C(=O)O [cystine] | –
13 | electron acceptor | electron acceptors | COc1cccc2c1C(=O)c1c(O)c3c(c(O)c1C2=O)C[C@@](O)(C(=O)CO)C[C@@H]3O[C@H]1C[C@H](N)[C@H](O)[C@H](C)O1 [doxorubicin] | rate of NBD-Cl reduction (increasing absorbance at 470 nm) [3, 8]: decreased; rate of methylene blue bleaching (decreasing absorbance at 663 nm) [3, 8]: decreased
14 | – | electron donors | N[C@@H](CCC(=O)N[C@@H](CS)C(=O)NCC(=O)O)C(=O)O [glutathione] | –
15 | – | electron donors | CCN(CC)CCOC(=O)c1ccc(N)cc1 [procaine] | –
16 | electron donors | – | diethyl benzocaine | rate of NBD-Cl reduction (increasing absorbance at 470 nm) [3, 7]: increased; redox activity (electron donor or electron acceptor) [5]: electron donor
